Laboratory results from patent EP3290412A1, “HIV-1 NUCLEOCAPSID INHIBITORS” (Università degli Studi di Siena, priority 2016, dated 2018).
Where two headings read alike, the source gives them in different places.

How the values were obtained:
[1] = test system: HIV-1 reference strain NL4-3; experiment: BiCycle assay (MT-2 then TZM-bl cells); type: cell-based
Protocol: BiCycle Assay is cell based assay allowing the evaluation of the antiviral activity of HIV-1 inhibitors on the whole replication cycle of HIV-1. The assay consists in a first round of infection of the T-cell line MT-2 followed by infection of TZM-bl cells. MT-2 cells were seeded at a concentration of 50,000 cells/well in a 96-well plate and infected with the HIV-1 reference strain NL4-3 in presence of five-fold dilutions of the investigational compounds. After 72 hours, 50 µl of supernatant from each well, containing the virus produced in the first round of infection, were used to infect TZM-bl cells seeded in a 96-plate well at a concentration of 30,000 cells/well. Two days later, cells were lysed adding 40 µl of Glo Lysis Buffer (Promega) to each well for 5 minutes, then 40 µl of Brighy-Glo Luciferase Reagent (Promega) were added to each well for relative luminescence units (RLU) counting using Glo-Max Multi Detection System (Promega). RLU values from each well were elaborated using the GraphPad v5.0 software to calculate the IC50 of each compound.

NC(11-55) = NC(11-55) (Human immunodeficiency virus type 1, UniProt P12493); experiment: NC inhibition assay (NC-induced cTAR DNA destabilization, fluorescence); type: biochemical, HIV-1; conditions: for inhibition at 100 µM: single point screening, positive = >25% inhibition at 100µM
Text: The NC inhibition assay is based on the nucleic acid chaperone activity of the NC protein. NC destabilizes the secondary structure of cTAR DNA, the complementary sequence of the transactivation response element, which is involved in minus-strand DNA transfer during reverse transcription. In the assay, the cTAR sequence from the HIV-1 Mal strain (Bernacchi et al, J Mol Biol, 2002) is labeled with a dye (Alexa488 fluorophore) and a quencher 4-(4'-dimethylaminophenylazo)benzoic acid (Dabcyl) at its 5' and 3' ends, respectively. In the absence of destabilization, the close proximity of both cTAR ends results in a strong fluorescence quenching of the dye emission by the Dabcyl group. NC(11-55) added to cTAR at a ratio of 10 NC/cTAR melts the bottom of the cTAR stem, which increases the distance between the dye and the quencher and as a result increases the dye fluorescence signal [Shvadchak et al, (2009) Identification by high throughput screening of small compounds inhibiting the nucleic acid destabilization activity of the HIV-1 nucleocapsid protein. Biochimie, 916-923]. NCIs are expected to prevent the NC-induced destabilization of cTAR and thus reverse the NC-induced increase in the fluorescence of the labeled cTAR. The activity of the inhibitor is thus evaluated from the ratio of the fluorescence intensity observed in the presence of NC with the molecule to the one in the absence of the compound.
The doubly labelled cTAR DNA oligonucleotides (55nt) were synthesised and purified by IBA GmbH Nucleic Acids Product Supply (Göttingen, Germany). Extinction coefficient at 260 nm of 5.73 x 10^5 M^-1 cm^-1 was used to determine the concentration of cTAR.
The NC(11-55) peptide (Avilov et al, Antimicrob Agents Chemother, 2012) was synthesized by solid-phase peptide synthesis on a 433A synthesizer (ABI, Foster City, CA) as previously described [De Rocquigny H, (1991) First large scale chemical synthesis of the 72 amino acid HIV-1 nucleocapsid protein NCp7 in an active form. Biochem Biophys Res Commun., 1010-1018]. The peptide was stored lyophilized and was resuspended in water before use. The concentration of peptide was determined by using an extinction coefficient of 5.7 x 10^3 M^-1 cm^-1 at 280 nm. Next, 2.5 molar equivalents of ZnSO4 were added and pH was raised to its final value by adding buffer.
All experiments were performed at 20 °C in 25 mM Tris-HCl (pH 7.5), 30 mM NaCl, and 0.2 mM MgCl2. To evaluate the inhibition activity of compounds on NC-induced cTAR destabilization, cTAR DNA (0.1 µM) was preincubated with 1 µM NC(11-55) (molar ratio NC:cTAR = 10:1) for 15 min at room temperature before addition of compound. For single point screening, all compounds were tested at three final concentrations: 1 µM, 10 µM and 100 µM. For the IC50 determination, inhibition of NC-induced cTAR melting was monitored through addition of increasing concentrations of the selected molecules to the pre-formed NC(11-55)-cTAR complex. After the addition of compound, the mixture was incubated for 15 min at room temperature before the reading. The fluorescence signal was recorded with a plate reader Xenius (SAFAS Monaco) or Fluoromax 3 spectrofluorometer (Horiba Jobin-Yvon), and the excitation and emission wavelengths were 480 and 520 nm, respectively. The spectra were corrected for dilution, buffer fluorescence and screening effect (when it was required). In order to check the occurrence of aggregation, we performed additional reading of absorption with the plate reader Xenius (SAFAS Monaco) or Cary 4000 spectrophotometer (Agilent). […]

[2] = Human immunodeficiency virus 1, NL43, TZM-bl, read-out: BiCycle IC50 nM

| SMILES | IC50 [1, 2] [nM] | IC50 (NC(11-55)) [µM] | inhibition at 100 µM (NC(11-55)) [%] | EC50 ([1]; Human immunodeficiency virus 1, NL43, TZM-bl, read-out: Mean EC50 (nM)) [nM] | HIV-1 nucleocapsid inhibition (result in words) (NC(11-55); same experimental settings as the compounds of the invention) | IC50 ([1]; Human immunodeficiency virus 1, NL43, MT-2 cells 72 hours then TZM-bl cells two days, NL4-3, read-out: BiCycle IC50) [nM] |
| --- | --- | --- | --- | --- | --- | --- |
| Cc1cccnc1-c1nc(O)c(O)c(C(=O)N[C@@H](C)C2CCCCC2)n1 [Compound 39, (S)-N-(1-cyclohexylethyl)-5,6-dihydroxy-2-(3-methylpyridin-2-yl)pyrimidine-4-carboxamide] | 76.5 | 27 | > 25 |  |  |  |
| C[C@@H](NC(=O)c1nc(-c2ccc(CNCc3ccccc3)cn2)nc(O)c1O)C1CCCCC1 [Compound 53, (R)-2-(5-((benzylamino)methyl)pyridin-2-yl)-N-(1-cyclohexylethyl)-5,6-dihydroxypyrimidine-4-carboxamide] | 530 | 7.5 | > 25 |  |  |  |
| COc1cccc(-c2nc(O)c(O)c(C(=O)N[C@H](C)C3CCCCC3)n2)n1 [Compound 37, (R)-N-(1-cyclohexylethyl)-5,6-dihydroxy-2-(6-methoxypyridin-2-yl)pyrimidine-4-carboxamide] | 332 | 29 | > 25 |  |  |  |
| C[C@H](NC(=O)c1nc(-c2cc(C(F)(F)F)ccn2)nc(O)c1O)C1CCCCC1 [Compound 52, (S)-N-(1-cyclohexylethyl)-5,6-dihydroxy-2-(4-(trifluoromethyl)pyridin-2-yl)pyrimidine-4-carboxamide] | 433 | 26.5 | > 25 |  |  |  |
| Cc1nnc(C(=O)NC(C)(C)c2nc(C(=O)NCc3ccc(F)cc3)c(O)c(=O)n2C)o1 [Raltegravir™, Raltegravir, reference compound] |  |  |  | 1 | inactive |  |
| C[C@@H](NC(=O)c1nc(-c2cc(C(F)(F)F)ccn2)nc(O)c1O)C1CCCCC1 [Compound 27, (R)-N-(1-cyclohexylethyl)-5,6-dihydroxy-2-(4-(trifluoromethyl)pyridin-2-yl)pyrimidine-4-carboxamide] | 433 | 12.5 | > 25 |  |  |  |
| C[C@@H](NC(=O)c1nc(-c2cccc(Cl)n2)nc(O)c1O)C1CCCCC1 [Compound 34, (R)-2-(6-chloropyridin-2-yl)-N-(1-cyclohexylethyl)-5,6-dihydroxypyrimidine-4-carboxamide] | 665 | 47.5 | > 25 |  |  |  |
| O=C(NCC1CCC1)c1nc(-c2cc3ccccc3cn2)nc(O)c1O [Compound 47, N-(cyclobutylmethyl)-5,6-dihydroxy-2-(isoquinolin-3-yl)pyrimidine-4-carboxamide] | 870 | 6.5 | > 25 |  |  |  |
| CC(=O)Nc1ccc(-c2nc(O)c(O)c(C(=O)N[C@H](C)C3CCCCC3)n2)nc1 [Compound 62, (R)-2-(5-acetamidopyridin-2-yl)-N-(1-cyclohexylethyl)-5,6-dihydroxypyrimidine-4-carboxamide] | 252 | 15.5 | > 25 |  |  |  |
| COc1ccc2nc(-c3nc(O)c(O)c(C(=O)N[C@H](C)C4CCCCC4)n3)ccc2c1 [Compound 66, (R)-N-(1-cyclohexylethyl)-5,6-dihydroxy-2-(6-methoxyquinolin-2-yl)pyrimidine-4-carboxamide] | 1970 | 8 | > 25 |  |  |  |
| O=C(NC1CCCCC1)c1nc(-c2ccccn2)nc(O)c1O [Compound 4, N-cyclohexyl-5,6-dihydroxy-2-(pyridin-2-yl)pyrimidine-4-carboxamide] | 461 | 320 | > 25 |  |  |  |
| C[C@@H](NC(=O)c1nc(-c2ccc(C(N)=O)cn2)nc(O)c1O)C1CCCCC1 [Compound 51, (R)-2-(5-carbamoylpyridin-2-yl)-N-(1-cyclohexylethyl)-5,6-dihydroxypyrimidine-4-carboxamide] | 10600 | 10 | > 25 |  |  |  |
| O=C(NCCC1CCCC1)c1nc(-c2ccccn2)nc(O)c1O [Compound 43, N-(2-cyclopentylethyl)-5,6-dihydroxy-2-(pyridin-2-yl)pyrimidine-4-carboxamide] |  |  | > 25 |  |  | 1380 |
| C[C@@H](NC(=O)c1nc(-c2cc(CCN(C)C)ccn2)nc(O)c1O)C1CCCCC1 [Compound 92, (R)-N-(1-cyclohexylethyl)-2-(4-(2-(dimethylamino)ethyl)pyridin-2-yl)-5,6-dihydroxypyrimidine-4-carboxamide] | 1400 | 10 | > 25 |  |  |  |
| C[C@@H](NC(=O)c1nc(-c2ccc(C(=O)OCc3ccccc3)cn2)nc(O)c1O)C1CCCCC1 [Compound 21, benzyl (R)-6-(4-((1-cyclohexylethyl)carbamoyl)-5,6-dihydroxypyrimidin-2-yl)nicotinate] | 118 | 10 | > 25 |  |  |  |
| COc1ccnc(-c2nc(O)c(O)c(C(=O)NC3CCC(C)(C)CC3)n2)c1 [Compound 77, N-(4,4-dimethylcyclohexyl)-5,6-dihydroxy-2-(4-methoxypyridin-2-yl)pyrimidine-4-carboxamide] | 1170 | 23.5 | > 25 |  |  |  |
| C[C@@H](NC(=O)c1nc(-c2ccc(Cl)cn2)nc(O)c1O)C1CCCCC1 [Compound 49, (R)-2-(5-chloropyridin-2-yl)-N-(1-cyclohexylethyl)-5,6-dihydroxypyrimidine-4-carboxamide] | 352 | 9 | > 25 |  |  |  |
| C[C@H](NC(=O)c1nc(-c2ccc(N)cn2)nc(O)c1O)C1CCCCC1 [Compound 81, (S)-2-(5-aminopyridin-2-yl)-N-(1-cyclohexylethyl)-5,6-dihydroxypyrimidine-4-carboxamide] | 222 | 22 | > 25 |  |  |  |
| C[C@@H](NC(=O)c1nc(-c2ccc3ccccc3n2)nc(O)c1O)C1CCCCC1 [Compound 22, (R)-N-(1-cyclohexylethyl)-5,6-dihydroxy-2-(quinolin-2-yl)pyrimidine-4-carboxamide] | 450 | 3 | > 25 |  |  |  |
| CC1CCCCC1NC(=O)c1nc(-c2ccccn2)nc(O)c1O (stereo not drawn) [Compound 59, 5,6-dihydroxy-N-(2-methylcyclohexyl)-2-(pyridin-2-yl)pyrimidine-4-carboxamide] | 408 | 50 | > 25 |  |  |  |
| CN1CCCC(CNC(=O)c2nc(-c3ccccn3)nc(O)c2O)C1 (stereo not drawn) [Compound 7, 5,6-dihydroxy-N-((1-methylpiperidin-3 - yl)methyl)-2-(pyridin-2-yl)pyrimidine-4-carboxamide] | > 50000 | 335 | > 25 |  |  |  |
| O=C(OC1CCCCC1)c1nc(-c2ccccn2)nc(O)c1O [Compound 13, cyclohexyl 5,6-dihydroxy-2-(pyridin-2-yl)pyrimidine-4-carboxylate] |  | 237 | > 25 |  |  |  |
